From patent EP4389123A1 (priority 2022, dated 2024)

Experiments:
murine prion strain RML = murine prion strain RML (Mus musculus, UniProt P04925); type: biochemical
[1] = system: human prion strain causing Gerstmann-Sträussler-Scheinker syndrome (GSS); parameters: species or system mice; settings: mouse, in vivo, ip
Vole-CWD prion strain = system: Vole-CWD prion strain; parameters: species or system mice; settings: mouse, in vivo
22L = system: 22L; parameters: species or system mice; settings: mouse, in vivo
301C = system: 301C; parameters: species or system mice; settings: mouse, in vivo
RML = system: RML; parameters: species or system mice; settings: mouse, in vivo

Sequence of murine prion strain RML (P04925 23-230 limits assumed): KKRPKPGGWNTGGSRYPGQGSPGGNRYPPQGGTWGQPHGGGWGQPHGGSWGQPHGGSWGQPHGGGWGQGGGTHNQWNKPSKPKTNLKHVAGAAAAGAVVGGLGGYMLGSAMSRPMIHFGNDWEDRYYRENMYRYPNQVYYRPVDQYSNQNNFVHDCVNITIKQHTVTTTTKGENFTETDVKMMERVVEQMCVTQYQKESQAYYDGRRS

Row | SMILES | prion propagation inhibitory capacity (murine prion strain RML) | times more efficient as inhibitor (murine prion strain RML) [times] | increase in survival time [1] [%] | increase in survival time (Vole-CWD prion strain) [%] | survival time prolongation (22L) [%] | survival time prolongation (301C) [%] | increase in survival times (RML) [%]
1 | C[n+]1ccc(-c2c3nc(c(-c4cc[n+](C)cc4)c4ccc([nH]4)c(-c4cc[n+](C)cc4)c4nc(c(-c5cc[n+](C)cc5)c5ccc2[nH]5)C=C4)C=C3)cc1 [TMPyP, reference compound] | showed prion propagation inhibitory capacity | – | – | – | – | – | –
2 | O=C(O)CCC1=C(CC(=O)O)c2cc3[nH]c(cc4nc(cc5[nH]c(cc1n2)c(CC(=O)O)c5CCC(=O)O)C(CC(=O)O)=C4CCC(=O)O)c(CC(=O)O)c3CCC(=O)O [UROI, uroporphyrin I] | showed prion propagation inhibitory capacity | 125 | > 200 | 11 | 10 | 12 | 30
